Measurements: patent US4530838A, “Synthetic calcitonin-gene-related peptides for lowering blood pressure or gastric acid secretion in mammals” (The Salk Institute for Biological Studies, priority 1983, dated 1985)

Legend:
Beagle dogs [1] = experiment: Pentagastrin-induced gastric acid secretion, chronic gastric-abdominal wall cannula, dogs; type: in vivo; details: IV and ICV, 10 pmoles, for several hours
Procedure: (§1) The synthetic CGRP was examined for its effect on mean arterial blood pressure(MAP) gastric acid secretion and plasma catecholamine levels. The effects of CGRP on MAP, gastric secretion and plasma catecholamine levels were determined in unanesthetized rats and Beagle dogs. MAP was measured via direct arterial monitoring and gastric acids were collected from chronic gastric-abdominal wall cannula. […] Mean arterial blood pressure in rats fell from 106 to 57±2 mm Hg within about 1 minute following an injection of 6.5 nmoles CGRP and then slowly returned to control values during a period of more than one hour. The iv administration of an injection equal to 650 pmoles of CGRP lowered MAP to 73±3 mm Hg in about one minute, returning to control value in about 1 hour. IV and ICV administration of CGRP (10 pmoles) to rats and dogs lowers pentagastrin-induced acid secretion by more than 70% for several hours.

Beagle dogs [2] = experiment: Mean arterial blood pressure (MAP) by direct arterial monitoring in unanesthetized Beagle dogs; type: in vivo
Procedure: as §1

[3] = Blood pressure (MAP) lowering, general procedure of Example I, species not stated; type: in vivo; details: species and dose not stated
Procedure: as §1
The peptide [Lys^35 ]-CGRP having the formula: [drawing 7] is synthesized.

rats [4] = experiment: Pentagastrin-induced gastric acid secretion, chronic gastric-abdominal wall cannula, rats; type: in vivo; details: IV and ICV, 10 pmoles, for several hours
Procedure: as §1

[5] = Plasma catecholamine (norepinephrine) levels in unanesthetized animals; type: in vivo, rats and Beagle dogs; details: IV and ICV, 6.5 nmoles
Procedure: as §1

rats [6] = experiment: Mean arterial blood pressure (MAP) by direct arterial monitoring in unanesthetized rats; type: in vivo
Procedure: as §1

[7] = iv, degree and duration dose-related

Row | SMILES | Lowering of pentagastrin-induced acid secretion (Beagle dogs [1]) | Rapid decrease in MAP evoked, intercerebroventricular (icv) administration (Beagle dogs [2]; icv) | Effect on MAP, intravenous (iv) administration (Beagle dogs [2]; [7]) | Effect on blood pressure / MAP [3] | Lowering of pentagastrin-induced acid secretion (rats [4]) | Norepinephrine in plasma [5] | Rapid decrease in MAP evoked, intercerebroventricular (icv) administration (rats [6]; icv) | Period of return of MAP to control values (rats [6]; injection of 6.5 nmoles) | Mean arterial blood pressure after injection (rats [6]; injection of 6.5 nmoles, fell from 106 within about 1 minute) [mm Hg] | Time of return of MAP to control value (rats [6]; iv injection of 650 pmoles) | Mean arterial blood pressure after injection (rats [6]; iv injection of 650 pmoles, in about one minute) [mm Hg] | Effect on MAP, intravenous (iv) administration (rats [6]; [7])
1 | CC(C)C[C@H](NC(=O)CNC(=O)[C@H](C)NC(=O)[C@H](CC(C)C)NC(=O)[C@H](CCCNC(=N)N)NC(=O)[C@H](Cc1c[nH]cn1)NC(=O)[C@@H](NC(=O)[C@@H](NC(=O)[C@@H]1CSSC[C@H](NC(=O)[C@@H](N)CO)C(=O)N[C@@H](CC(N)=O)C(=O)N[C@@H]([C@@H](C)O)C(=O)N[C@@H](C)C(=O)N[C@@H]([C@@H](C)O)C(=O)N1)C(C)C)[C@@H](C)O)C(=O)N[C@@H](CC(C)C)C(=O)N[C@@H](CO)C(=O)N[C@@H](CCCNC(=N)N)C(=O)N[C@@H](CO)C(=O)NCC(=O)NCC(=O)N[C@H](C(=O)N[C@H](C(=O)N[C@@H](CCCCN)C(=O)N[C@@H](CC(=O)O)C(=O)N[C@@H](CC(N)=O)C(=O)N[C@@H](Cc1ccccc1)C(=O)N[C@H](C(=O)N1CCC[C@H]1C(=O)N[C@H](C(=O)N[C@@H](CC(N)=O)C(=O)N[C@H](C(=O)NCC(=O)N[C@@H](CO)C(=O)N[C@@H](CCC(=O)O)C(=O)N[C@@H](C)C(=O)N[C@@H](Cc1ccccc1)C(N)=O)C(C)C)[C@@H](C)O)C(C)C)C(C)C)C(C)C [CGRP] | more than 70% | not | rapid decrease in MAP | substantially lower blood pressure for an extended time period | more than 70% | significant elevation | not | more than one | 57±2 | about 1 hour | 73±3 | rapid decrease in MAP
2 | CC(C)C[C@H](NC(=O)CNC(=O)[C@H](C)NC(=O)[C@H](CC(C)C)NC(=O)[C@H](CCCNC(=N)N)NC(=O)[C@H](Cc1c[nH]cn1)NC(=O)[C@@H](NC(=O)[C@@H](NC(=O)[C@@H]1CSSC[C@H](NC(=O)[C@@H](N)CO)C(=O)N[C@@H](CC(N)=O)C(=O)N[C@@H]([C@@H](C)O)C(=O)N[C@@H](C)C(=O)N[C@@H]([C@@H](C)O)C(=O)N1)C(C)C)[C@@H](C)O)C(=O)N[C@@H](CC(C)C)C(=O)N[C@@H](CO)C(=O)N[C@@H](CCCNC(=N)N)C(=O)N[C@@H](CO)C(=O)NCC(=O)NCC(=O)N[C@H](C(=O)N[C@H](C(=O)N[C@@H](CCCCN)C(=O)N[C@@H](CC(=O)O)C(=O)N[C@@H](CC(N)=O)C(=O)N[C@@H](Cc1ccccc1)C(=O)N[C@H](C(=O)N1CCC[C@H]1C(=O)N[C@H](C(=O)N[C@@H](CC(N)=O)C(=O)N[C@H](C(=O)NCC(=O)N[C@@H](CO)C(=O)N[C@@H](CCCCN)C(=O)N[C@@H](C)C(=O)N[C@@H](Cc1ccccc1)C(N)=O)C(C)C)[C@@H](C)O)C(C)C)C(C)C)C(C)C [[Lys^35]-CGRP] | – | – | – | very significant lowering of MAP | – | – | – | – | – | – | – | –
